Patent EP0252983B1, “SALTS OF N-(VINYLOXIETHYL)DITHIOCARBAMIC ACID, METHOD OF OBTAINING THEREOF AND […] ON THEM” (priority 1985, dated 1987)

Assays:
Experiment in all cases: Mycelial growth inhibition on agar (contact activity)
Assay type in all cases: cell-based
[1] = tested on: Acremonium charticola; conditions: Acremonium charticola, 120 h, Würzeagar, read-out: Myzelhemmung in %
[2] = tested on: Cladosporium resinae; conditions: Amorphotheca resinae, 120 h, Würzeagar, read-out: Myzelhemmung in %
[3] = tested on: Walrotiela subiculesa; conditions: 120 h, Würzeagar, read-out: Myzelhemmung in %

C=COCCNC(=S)S [Kalium-N-(vinyloxyäthyl)dithiocarbamat]
100%: inhibition of growth at 0.003 % ([1]; Präparatkonzentration 0,003 %) | inhibition of growth at 0.006 % ([1]; Präparatkonzentration 0,006 %) | inhibition of growth at 0.012 % ([1]; Präparatkonzentration 0,012 %) | inhibition of growth at 0.0015 % ([2]; Präparatkonzentration 0,0015 %) | inhibition of growth at 0.003 % ([2]; Präparatkonzentration 0,003 %) | inhibition of growth at 0.006 % ([2]; Präparatkonzentration 0,006 %) | inhibition of growth at 0.012 % ([2]; Präparatkonzentration 0,012 %) | inhibition of growth at 0.0015 % ([3]; Präparatkonzentration 0,0015 %) | inhibition of growth at 0.003 % ([3]; Präparatkonzentration 0,003 %) | inhibition of growth at 0.006 % ([3]; Präparatkonzentration 0,006 %) | inhibition of growth at 0.012 % ([3]; Präparatkonzentration 0,012 %)
